Target: bovine cardiac myofibrils (full-length cardiac myosin ATPase in the native sarcomere) (Bos taurus (Bovine), UniProt Q9BE39)
Test: Skinned bovine cardiac myofibril ATPase assay (PK/LDH-coupled)
Assay type: biochemical
Conditions: Ca2+ activating to 75% of maximal rate; for CDMF75 IC15: concentration giving 15% inhibition; for IC50: read-out: CDMF75 IC50
In short: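 Inhibition of steady-state ATPase read at 340 nm through a PK/LDH-coupled NADH system (0.5 mM NADH, 1.5 mM PEP). Detergent-skinned bovine cardiac myofibrils, 1 mg/mL, were tested at pH 6.8 in PIPES/MgCl2 with 50 μM ATP and calcium adjusted to give pCa50 or pCa75 activation.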

Sequence of bovine cardiac myofibrils (full-length cardiac myosin ATPase in the native sarcomere) (Q9BE39 whole entry): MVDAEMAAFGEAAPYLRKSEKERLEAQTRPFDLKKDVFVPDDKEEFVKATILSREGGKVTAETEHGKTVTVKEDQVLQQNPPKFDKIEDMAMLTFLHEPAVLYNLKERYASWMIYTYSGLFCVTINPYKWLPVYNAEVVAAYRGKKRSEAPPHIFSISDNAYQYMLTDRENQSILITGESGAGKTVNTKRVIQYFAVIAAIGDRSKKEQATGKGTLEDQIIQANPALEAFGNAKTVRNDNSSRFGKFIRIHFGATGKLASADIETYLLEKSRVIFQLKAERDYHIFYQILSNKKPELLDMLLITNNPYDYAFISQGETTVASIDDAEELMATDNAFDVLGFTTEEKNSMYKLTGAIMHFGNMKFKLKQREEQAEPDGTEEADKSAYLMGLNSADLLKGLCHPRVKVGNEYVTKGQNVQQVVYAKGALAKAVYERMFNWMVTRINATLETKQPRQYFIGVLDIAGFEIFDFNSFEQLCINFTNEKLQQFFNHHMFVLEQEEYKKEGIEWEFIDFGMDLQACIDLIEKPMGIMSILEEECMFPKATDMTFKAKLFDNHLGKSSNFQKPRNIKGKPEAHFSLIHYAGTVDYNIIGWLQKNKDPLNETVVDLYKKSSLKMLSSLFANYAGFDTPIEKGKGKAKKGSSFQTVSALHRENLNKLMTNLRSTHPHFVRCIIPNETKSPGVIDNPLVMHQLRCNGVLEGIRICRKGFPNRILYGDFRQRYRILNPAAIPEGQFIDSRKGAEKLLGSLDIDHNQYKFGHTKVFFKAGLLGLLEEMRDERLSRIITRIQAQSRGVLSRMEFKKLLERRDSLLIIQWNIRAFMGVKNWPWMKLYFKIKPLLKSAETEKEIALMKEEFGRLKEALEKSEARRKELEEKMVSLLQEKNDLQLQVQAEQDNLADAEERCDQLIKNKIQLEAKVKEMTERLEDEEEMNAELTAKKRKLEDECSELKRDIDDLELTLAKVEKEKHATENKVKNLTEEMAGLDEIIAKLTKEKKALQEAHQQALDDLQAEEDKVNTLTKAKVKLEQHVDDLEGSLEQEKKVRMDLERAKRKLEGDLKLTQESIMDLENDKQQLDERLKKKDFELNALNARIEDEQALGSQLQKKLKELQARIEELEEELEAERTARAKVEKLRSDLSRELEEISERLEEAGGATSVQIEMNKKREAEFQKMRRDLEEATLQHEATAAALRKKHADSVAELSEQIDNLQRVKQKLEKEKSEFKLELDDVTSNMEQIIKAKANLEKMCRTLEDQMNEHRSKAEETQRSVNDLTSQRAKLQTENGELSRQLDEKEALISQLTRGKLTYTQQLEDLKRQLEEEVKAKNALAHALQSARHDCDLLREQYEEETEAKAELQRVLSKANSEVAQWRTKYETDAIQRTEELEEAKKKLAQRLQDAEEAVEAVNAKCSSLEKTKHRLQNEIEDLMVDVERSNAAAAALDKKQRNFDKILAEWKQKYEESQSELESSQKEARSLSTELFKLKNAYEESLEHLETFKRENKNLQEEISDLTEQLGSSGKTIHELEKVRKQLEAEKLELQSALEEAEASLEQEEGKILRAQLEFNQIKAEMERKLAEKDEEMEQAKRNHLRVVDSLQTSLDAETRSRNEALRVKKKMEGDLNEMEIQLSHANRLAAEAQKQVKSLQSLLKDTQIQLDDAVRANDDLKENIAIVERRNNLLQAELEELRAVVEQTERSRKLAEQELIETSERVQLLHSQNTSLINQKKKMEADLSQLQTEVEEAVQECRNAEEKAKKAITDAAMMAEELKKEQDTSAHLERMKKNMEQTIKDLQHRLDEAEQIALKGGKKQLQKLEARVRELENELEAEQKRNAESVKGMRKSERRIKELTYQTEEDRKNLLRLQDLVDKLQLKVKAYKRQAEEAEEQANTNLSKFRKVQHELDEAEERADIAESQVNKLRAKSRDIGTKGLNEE
Sequence of bovine cardiac myofibrils (full-length cardiac myosin ATPase in the native sarcomere) (P85100 whole entry partner): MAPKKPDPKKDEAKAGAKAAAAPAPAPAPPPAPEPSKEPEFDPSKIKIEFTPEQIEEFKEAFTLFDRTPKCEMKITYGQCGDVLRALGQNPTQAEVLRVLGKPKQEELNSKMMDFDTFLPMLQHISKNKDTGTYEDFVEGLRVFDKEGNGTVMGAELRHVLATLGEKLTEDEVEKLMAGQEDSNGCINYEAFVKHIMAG
Sequence of bovine cardiac myofibrils (full-length cardiac myosin ATPase in the native sarcomere) (Q3SZE5 whole entry partner): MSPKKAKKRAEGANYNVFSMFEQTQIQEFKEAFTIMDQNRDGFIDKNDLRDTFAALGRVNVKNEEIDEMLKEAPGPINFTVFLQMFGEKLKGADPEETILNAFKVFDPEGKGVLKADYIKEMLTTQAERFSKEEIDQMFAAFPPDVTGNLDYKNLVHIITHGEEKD

Structure (SMILES) | CDMF75 IC15 | IC50
Cc1noc(-c2ccc3c(c2)CC[C@H]3NC(=O)c2cnc(C)n2C)n1 [Compound 702, (R)-1,2-dimethyl-N-(5-(3-methyl-1,2,4-oxadiazol-5-yl)-2,3-dihydro-1H-inden-1-yl)-1H-imidazole-5-carboxamide] | 2600 nM | 11700 nM
Cc1noc(-c2ccc3c(c2)CC[C@H]3NC(=O)c2nnc(C)o2)n1 [Compound 703, (R)-5-methyl-N-(5-(3-methyl-1,2,4-oxadiazol-5-yl)-2,3-dihydro-1H-inden-1-yl)-1,3,4-oxadiazole-2-carboxamide] | 1700 nM | 6200 nM
Cc1noc(-c2ccc3c(c2)CC[C@H]3NC(=O)c2cnn(CCO)c2C)n1 [Compound 704, (R)-1-(2-hydroxyethyl)-5-methyl-N-(5-(3-methyl-1,2,4-oxadiazol-5-yl)-2,3-dihydro-1H-inden-1-yl)-1H-pyrazole-4-carboxamide] | 2600 nM | 11400 nM
Cc1cc(C(=O)N[C@@H]2CCc3cc(-c4nc(C)no4)ccc32)cnn1 [Compound 705, (R)-6-methyl-N-(5-(3-methyl-1,2,4-oxadiazol-5-yl)-2,3-dihydro-1H-inden-1-yl)pyridazine-4-carboxamide] | 4900 nM | 28100 nM
Cc1noc(-c2ccc3c(c2)CC[C@H]3NC(=O)c2cccc(CO)c2)n1 [Compound 706, (R)-3-(hydroxymethyl)-N-(5-(3-methyl-1,2,4-oxadiazol-5-yl)-2,3-dihydro-1H-inden-1-yl)benzamide] | 600 nM | 2500 nM
CCc1nc(-c2ccc3c(c2)CC[C@H]3NC(=O)c2cccc(C(C)O)c2)no1 (stereo partly drawn) [Compound 715, N-((R)-5-(5-ethyl-1,2,4-oxadiazol-3-yl)-2,3-dihydro-1H-inden-1-yl)-3-(1-hydroxyethyl)benzamide] | 400 nM | 1500 nM
Cc1noc(-c2ccc3c(c2)CC[C@H]3NC(=O)c2ccnc(C(F)F)c2)n1 [Compound 716, (R)-2-(difluoromethyl)-N-(5-(3-methyl-1,2,4-oxadiazol-5-yl)-2,3-dihydro-1H-inden-1-yl)isonicotinamide] | 1400 nM | 5900 nM
CCc1nc(-c2ccc3c(c2)CC[C@H]3NC(=O)c2cc(C(C)=O)ccn2)no1 [Compound 720, (R)-4-acetyl-N-(5-(5-ethyl-1,2,4-oxadiazol-3-yl)-2,3-dihydro-1H-inden-1-yl)picolinamide] | 2300 nM | 10400 nM
COCc1nc(-c2ccc3c(c2)CC[C@H]3NC(=O)c2cccc(C(C)O)c2)no1 (stereo partly drawn) [Compound 722, 3-(1-hydroxyethyl)-N-((R)-5-(5-(methoxymethyl)-1,2,4-oxadiazol-3-yl)-2,3-dihydro-1H-inden-1-yl)benzamide] | 1400 nM | 5600 nM
CCc1nc(-c2ccc3c(c2)CC[C@H]3NC(=O)N2CC[C@H](O)C2)no1 [Compound 723, (S)-N-((R)-5-(5-ethyl-1,2,4-oxadiazol-3-yl)-2,3-dihydro-1H-inden-1-yl)-3-hydroxypyrrolidine-1-carboxamide] | 4400 nM | 20300 nM
CCc1nc(-c2ccc3c(c2)CC[C@H]3NC(=O)N2CC[C@@H](O)C2)no1 [Compound 724, (R)-N-((R)-5-(5-ethyl-1,2,4-oxadiazol-3-yl)-2,3-dihydro-1H-inden-1-yl)-3-hydroxypyrrolidine-1-carboxamide] | 1700 nM | 6800 nM
Cc1nc(-c2ccc3c(c2)CC[C@H]3NC(=O)c2cccc([C@H](C)O)c2)no1 [Compound 725, 3-((S)-1-hydroxyethyl)-N-((R)-5-(5-methyl-1,2,4-oxadiazol-3-yl)-2,3-dihydro-1H-inden-1-yl)benzamide] | 600 nM | 2900 nM
Cc1nc(-c2ccc3c(c2)CC[C@H]3NC(=O)c2cccc([C@@H](C)O)c2)no1 [Compound 726, 3-((R)-1-hydroxyethyl)-N-((R)-5-(5-methyl-1,2,4-oxadiazol-3-yl)-2,3-dihydro-1H-inden-1-yl)benzamide] | 1200 nM | 6000 nM
COCc1nc(-c2ccc3c(c2)CC[C@H]3NC(=O)c2cccc([C@H](C)O)c2)no1 [Compound 728, 3-((S)-1-hydroxyethyl)-N-((R)-5-(5-(methoxymethyl)-1,2,4-oxadiazol-3-yl)-2,3-dihydro-1H-inden-1-yl)benzamide] | 800 nM | 3800 nM
COCc1nc(-c2ccc3c(c2)CC[C@H]3NC(=O)c2cccc([C@@H](C)O)c2)no1 [Compound 729, 3-((R)-1-hydroxyethyl)-N-((R)-5-(5-(methoxymethyl)-1,2,4-oxadiazol-3-yl)-2,3-dihydro-1H-inden-1-yl)benzamide] | 2600 nM | 13200 nM
COCc1nc(-c2ccc3c(c2)CC[C@H]3NC(=O)c2ccnc(C(F)F)c2)no1 [Compound 731, (R)-2-(difluoromethyl)-N-(5-(5-(methoxymethyl)-1,2,4-oxadiazol-3-yl)-2,3-dihydro-1H-inden-1-yl)isonicotinamide] | 1100 nM | 5300 nM

Results, then the compound that gave them:

CDMF75 IC15 | IC50 | Structure (SMILES)
300 nM | 1100 nM | O=C(N[C@@H]1COc2cc(-c3noc(C(F)F)n3)ccc21)c1cccc(CO)c1 [Compound 701, (S)-N-(6-(5-(difluoromethyl)-1,2,4-oxadiazol-3-yl)-2,3-dihydrobenzofuran-3-yl)-3-(hydroxymethyl)benzamide]
900 nM | 3600 nM | O=C(N[C@@H]1COc2cc(-c3noc(C(F)F)n3)ccc21)c1cc(CO)ccn1 [Compound 707, (S)-N-(6-(5-(difluoromethyl)-1,2,4-oxadiazol-3-yl)-2,3-dihydrobenzofuran-3-yl)-4-(hydroxymethyl)picolinamide]
600 nM | 2800 nM | O=C(N[C@@H]1COc2cc(-c3noc(C(F)F)n3)ccc21)c1cc(CO)ccn1 [Compound 708, (S)-N-(6-(5-(difluoromethyl)-1,2,4-oxadiazol-3-yl)-2,3-dihydrobenzofuran-3-yl)-4-(hydroxymethyl)picolinamide]
400 nM | 1900 nM | O=C(N[C@@H]1COc2cc(-c3noc(C(F)F)n3)ccc21)c1ccnc(CO)c1 [Compound 710, (S)-N-(6-(5-(difluoromethyl)-1,2,4-oxadiazol-3-yl)-2,3-dihydrobenzofuran-3-yl)-2-(hydroxymethyl)isonicotinamide]
800 nM | 2800 nM | COCc1nc(-c2ccc3c(c2)OC[C@H]3NC(=O)c2cccc(CO)c2)no1 [Compound 711, (S)-3-(hydroxymethyl)-N-(6-(5-(methoxymethyl)-1,2,4-oxadiazol-3-yl)-2,3-dihydrobenzofuran-3-yl)benzamide]
500 nM | 2400 nM | COCc1nc(-c2ccc3c(c2)OC[C@H]3NC(=O)c2cccc(CO)c2)no1 [Compound 712, (S)-3-(hydroxymethyl)-N-(6-(5-(methoxymethyl)-1,2,4-oxadiazol-3-yl)-2,3-dihydrobenzofuran-3-yl)benzamide]
2700 nM | 11000 nM | COCc1nc(-c2ccc3c(c2)OC[C@H]3NC(=O)c2cc(CO)ccn2)no1 [Compound 713, (S)-4-(hydroxymethyl)-N-(6-(5-(methoxymethyl)-1,2,4-oxadiazol-3-yl)-2,3-dihydrobenzofuran-3-yl)picolinamide]
1400 nM | 5500 nM | COCc1nc(-c2ccc3c(c2)OC[C@H]3NC(=O)c2ccnc(CO)c2)no1 [Compound 714, (S)-2-(hydroxymethyl)-N-(6-(5-(methoxymethyl)-1,2,4-oxadiazol-3-yl)-2,3-dihydrobenzofuran-3-yl)isonicotinamide]
400 nM | 1800 nM | Cc1nc(-c2ccc3c(c2)OC[C@H]3NC(=O)c2cccc(CO)c2)no1 [Compound 717, (S)-3-(hydroxymethyl)-N-(6-(5-methyl-1,2,4-oxadiazol-3-yl)-2,3-dihydrobenzofuran-3-yl)benzamide]
1100 nM | 5200 nM | Cc1nc(-c2ccc3c(c2)OC[C@H]3NC(=O)c2cc(CO)ccn2)no1 [Compound 718, (S)-4-(hydroxymethyl)-N-(6-(5-methyl-1,2,4-oxadiazol-3-yl)-2,3-dihydrobenzofuran-3-yl)picolinamide]
800 nM | 3700 nM | Cc1nc(-c2ccc3c(c2)OC[C@H]3NC(=O)c2ccnc(CO)c2)no1 [Compound 719, (S)-2-(hydroxymethyl)-N-(6-(5-methyl-1,2,4-oxadiazol-3-yl)-2,3-dihydrobenzofuran-3-yl)isonicotinamide]
1500 nM | 6700 nM | CCc1nc(-c2ccc3c(c2)CC[C@H]3NC(=O)c2cc(C(C)O)ccn2)no1 (stereo partly drawn) [Compound 721, N-((R)-5-(5-ethyl-1,2,4-oxadiazol-3-yl)-2,3-dihydro-1H-inden-1-yl)-4-(1-hydroxyethyl)picolinamide]
700 nM | 3200 nM | Cc1nc(-c2ccc3c(c2)CC[C@H]3NC(=O)c2ccnc(C(F)F)c2)no1 [Compound 730, (R)-2-(difluoromethyl)-N-(5-(5-methyl-1,2,4-oxadiazol-3-yl)-2,3-dihydro-1H-inden-1-yl)isonicotinamide]
700 nM | 3400 nM | Cc1nc(-c2ccc3c(c2)CC[C@H]3NC(=O)c2cc(C(F)F)ccn2)no1 [Compound 732, (R)-4-(difluoromethyl)-N-(5-(5-methyl-1,2,4-oxadiazol-3-yl)-2,3-dihydro-1H-inden-1-yl)picolinamide]
1500 nM | 8900 nM | COCc1nc(-c2ccc3c(c2)CC[C@H]3NC(=O)c2cc(C(F)F)ccn2)no1 [Compound 733, (R)-4-(difluoromethyl)-N-(5-(5-(methoxymethyl)-1,2,4-oxadiazol-3-yl)-2,3-dihydro-1H-inden-1-yl)picolinamide]

Reference: patent US12065436B2, “Cardiac sarcomere inhibitors” (Cytokinetics, Inc., priority 2018, dated 2024)
